Measured values as given in US20190307776A1, “AZA-S[…] HUMAN IMMUNODEFICIENCY VIRUS REPLICATION” (priority 2016, published 2019).

System: recombinant NL4-3 virus
Test: HIV cell culture assay
Assay type: cell-based
Conditions: Human immunodeficiency virus 1, NL43, MT2
Description: HIV cell culture assay—MT-2 cells and 293T cells were obtained from the NIH AIDS Research and Reference Reagent Program. MT-2 cells were propagated in RPMI 1640 media supplemented with 10% heat inactivated fetal bovine serum, 100 […]. The 293T cells were propagated in DMEM media supplemented with 10% heat inactivated fetal bovine serum (FBS), 100 units/ml penicillin G and 100 μg/ml streptomycin. The proviral DNA clone of NL4-3 was obtained from the NIH AIDS Research and Reference Reagent Program. A recombinant NL4-3 virus, in which a section of the nef gene from NL4-3 was replaced with the Renilla luciferase gene, was used as a reference virus. In addition, residue Gag P373 was converted to P373S. Briefly, the recombinant virus was prepared by transfection of the altered proviral clone of NL4-3. Transfections were performed in 293T cells using LipofectAMINE PLUS from Invitrogen (Carlsbad, Calif.), according to manufacturer's instruction. The virus was titered in MT-2 cells using luciferase enzyme activity as a marker. Luciferase was quantitated using the Dual Luciferase kit from Promega (Madison, Wis.), with modifications to the manufacturer's protocol. The diluted Passive Lysis solution was pre-mixed with the re-suspended Luciferase Assay Reagent and the re-suspended Stop & Glo Substrate (2:1:1 ratio). Fifty (50) μL of the mixture was added to each aspirated well on assay plates and luciferase activity was measured immediately on a Wallac TriLux (Perkin-Elmer). Antiviral activities of inhibitors toward the recombinant virus were quantified by measuring luciferase activity in cells infected for 4-5 days with NLRluc recombinants in the presence serial dilutions of the inhibitor.

Compound	EC50 [nM]
C=C(C)[C@@H]1CC[C@]2(CO)CC[C@]3(C)[C@H](CC[C@@H]4[C@@]5(C)CCN(S(=O)(=O)c6ccc(/C=C/C(=O)O)cc6)C(C)(C)C5CC[C@]43C)[C@@H]12 (stereo partly drawn) [Example 18, (E)-3-(4-(((6aR,6bR,8aS,11R,11aR,11bR,13aR,13bR)-8a-(hydroxymethyl)-4,4,6a,6b,13b-pentamethyl-11-(prop-1-en-2-yl)icosahydro-3H-cyclopenta[5,6]naphtho[2,1-f]isoquinolin-3-yl)sulfonyl)phenyl)acrylic acid]	4200
C=C(C)[C@@H]1CC[C@]2(CO)CC[C@]3(C)[C@H](CC[C@@H]4[C@@]5(C)CCN(S(=O)(=O)c6ccc(CC(=O)O)cc6)C(C)(C)C5CC[C@]43C)[C@@H]12 (stereo partly drawn) [Example 19, 2-(4-(((6aR,6bR,8aS,11R,11aR,11bR,13aR,13bR)-8a-(hydroxymethyl)-4,4,6a,6b,13b-pentamethyl-11-(prop-1-en-2-yl)icosahydro-3H-cyclopenta[5,6]naphtho[2,1-f]isoquinolin-3-yl)sulfonyl)phenyl)acetic acid]	> 8000
C=C(C)[C@@H]1CC[C@]2(CO)CC[C@]3(C)[C@H](CC[C@@H]4[C@@]5(C)CCN(S(=O)(=O)c6ccc(C(=O)O)cc6)C(C)(C)C5CC[C@]43C)[C@@H]12 (stereo partly drawn) [Example 20, 4-(((6aR,6bR,8aS,11R,11aR,11bR,13aR,13bR)-8a-(hydroxymethyl)-4,4,6a,6b,13b-pentamethyl-11-(prop-1-en-2-yl)icosahydro-3H-cyclopenta[5,6]naphtho[2,1-f]isoquinolin-3-yl)sulfonyl)benzoic acid]	3100
C=C(C)[C@@H]1CC[C@]2(CO)CC[C@]3(C)[C@H](CC[C@@H]4[C@@]5(C)CCN(S(=O)(=O)c6ccsc6C(=O)O)C(C)(C)C5CC[C@]43C)[C@@H]12 (stereo partly drawn) [Example 21, 3-(((6aR,6bR,8aS,11R,11aR,11bR,13aR,13bR)-8a-(hydroxymethyl)-4,4,6a,6b,13b-pentamethyl-11-(prop-1-en-2-yl)icosahydro-3H-cyclopenta[5,6]naphtho[2,1-f]isoquinolin-3-yl)sulfonyl)thiophene-2-carboxylic acid]	> 8000
C=C(C)[C@@H]1CC[C@]2(C(=O)O)CC[C@]3(C)[C@H](CC[C@@H]4[C@@]5(C)CC(=O)N(c6ccc(C(=O)O)cc6)C(C)(C)[C@@H]5CC[C@]43C)[C@@H]12 [Example 22, (4aR,6aR,6bR,8aS,11R,11aR,11bR,13aR,13bR)-3-(4-carboxyphenyl)-4,4,6a,6b,13b-pentamethyl-2-oxo-11-(prop-1-en-2-yl)icosahydro-8aH-cyclopenta[5,6]naphtho[2,1-f]isoquinoline-8a-carboxylic acid]	> 3000
C=C(C)[C@@H]1CC[C@]2(CNCCCN3CCS(=O)(=O)CC3)CC[C@]3(C)[C@H](CC[C@@H]4[C@@]5(C)CCN(C(=O)CC(C)(C)C(=O)O)C(C)(C)[C@@H]5CC[C@]43C)[C@@H]12 [Example 23, 4-((4aR,6aR,6bR,8aS,11R,11aR,11bR,13aR,13bR)-8a-(((3-(1,1-dioxidothiomorpholino)propyl)amino)methyl)-4,4,6a,6b,13b-pentamethyl-11-(prop-1-en-2-yl)icosahydro-3H-cyclopenta[5,6]naphtho[2,1-f]isoquinolin-3-yl)-2,2-dimethyl-4-oxobutanoic acid]	390
C=C(C)[C@@H]1CC[C@]2(CNCCCN3CCS(=O)(=O)CC3)CC[C@]3(C)[C@H](CC[C@@H]4[C@@]5(C)CCN(C(=O)CC(C)(C)CC(=O)O)C(C)(C)[C@@H]5CC[C@]43C)[C@@H]12 [Example 24, 5-((4aR,6aR,6bR,8aS,11R,11aR,11bR,13aR,13bR)-8a-(((3-(1,1-dioxidothiomorpholino)propyl)amino)methyl)-4,4,6a,6b,13b-pentamethyl-11-(prop-1-en-2-yl)icosahydro-3H-cyclopenta[5,6]naphtho[2,1-f]isoquinolin-3-yl)-3,3-dimethyl-5-oxopentanoic acid]	120
C=C(C)[C@@H]1CC[C@]2(CNCCCN3CCS(=O)(=O)CC3)CC[C@]3(C)[C@H](CC[C@@H]4[C@@]5(C)CCN(C(=O)CCC(C)(C)C(=O)O)C(C)(C)[C@@H]5CC[C@]43C)[C@@H]12 [Example 25, 5-((4aR,6aR,6bR,8aS,11R,11aR,11bR,13aR,13bR)-8a-(((3-(1,1-dioxidothiomorpholino)propyl)amino)methyl)-4,4,6a,6b,13b-pentamethyl-11-(prop-1-en-2-yl)hexadecahydro-1H-cyclopenta[5,6]naphtho[2,1-f]isoquinolin-3(2H,4H,13bH)-yl)-2,2-dimethyl-5-oxopentanoic acid]	120
C=C(C)[C@@H]1CC[C@]2(CNCCCN3CCS(=O)(=O)CC3)CC[C@]3(C)[C@H](CC[C@@H]4[C@@]5(C)CCN(C(=O)CC6(CC(=O)O)CCCC6)C(C)(C)[C@@H]5CC[C@]43C)[C@@H]12 [Example 26, 2-(1-(2-((4aR,6aR,6bR,8aS,11R,11aR,11bR,13aR,13bR)-8a-(((3-(1,1-dioxidothiomorpholino)propyl)amino)methyl)-4,4,6a,6b,13b-pentamethyl-11-(prop-1-en-2-yl)hexadecahydro-1H-cyclopenta[5,6]naphtho[2,1-f]isoquinolin-3(2H,4H,13bH)-yl)-2-oxoethyl)cyclopentyl)acetic acid]	130
C=C(C)[C@@H]1CC[C@]2(CNCCCN3CCS(=O)(=O)CC3)CC[C@]3(C)[C@H](CC[C@@H]4[C@@]5(C)CCN(C(=O)Cc6cccc(CC(=O)O)c6)C(C)(C)[C@@H]5CC[C@]43C)[C@@H]12 [Example 27, 2-(3-(2-((4aR,6aR,6bR,8aS,11R,11aR,11bR,13aR,13bR)-8a-(((3-(1,1-dioxidothiomorpholino)propyl)amino)methyl)-4,4,6a,6b,13b-pentamethyl-11-(prop-1-en-2-yl)hexadecahydro-1H-cyclopenta[5,6]naphtho[2,1-f]isoquinolin-3(2H,4H,13bH)-yl)-2-oxoethyl)phenyl)acetic acid]	300
C=C(C)[C@@H]1CC[C@]2(CNCCCN3CCS(=O)(=O)CC3)CC[C@]3(C)[C@H](CC[C@@H]4[C@@]5(C)CCN(C(=O)CCc6ccc(C(=O)O)cc6)C(C)(C)[C@@H]5CC[C@]43C)[C@@H]12 [Example 28, 4-(3-((4aR,6aR,6bR,8aS,11R,11aR,11bR,13aR,13bR)-8a-(((3-(1,1-dioxidothiomorpholino)propyl)amino)methyl)-4,4,6a,6b,13b-pentamethyl-11-(prop-1-en-2-yl)hexadecahydro-1H-cyclopenta[5,6]naphtho[2,1-f]isoquinolin-3(2H,4H,13bH)-yl)-3-oxopropyl)benzoic acid]	940
C=C(C)[C@@H]1CC[C@]2(CNCCCN3CCS(=O)(=O)CC3)CC[C@]3(C)[C@H](CC[C@@H]4[C@@]5(C)CCN(C(=O)/C=C/c6ccc(C(=O)O)cc6)C(C)(C)[C@@H]5CC[C@]43C)[C@@H]12 [Example 29, 4-((E)-3-((4aR,6aR,6bR,8aS,11R,11aR,11bR,13aR,13bR)-8a-(((3-(1,1-dioxidothiomorpholino)propyl)amino)methyl)-4,4,6a,6b,13b-pentamethyl-11-(prop-1-en-2-yl)hexadecahydro-1H-cyclopenta[5,6]naphtho[2,1-f]isoquinolin-3(2H,4H,13bH)-yl)-3-oxoprop-1-en-1-yl)benzoic acid]	1590
C=C(C)[C@@H]1CC[C@]2(CNCCCN3CCS(=O)(=O)CC3)CC[C@]3(C)[C@H](CC[C@@H]4[C@@]5(C)CCN(C(=O)c6ccc(C(=O)O)cc6)C(C)(C)[C@@H]5CC[C@]43C)[C@@H]12 [Example 30, 4-((4aR,6aR,6bR,8aS,11R,11aR,11bR,13aR,13bR)-8a-(((3-(1,1-dioxidothiomorpholino)propyl)amino)methyl)-4,4,6a,6b,13b-pentamethyl-11-(prop-1-en-2-yl)icosahydro-1H-cyclopenta[5,6]naphtho[2,1-f]isoquinoline-3-carbonyl)benzoic acid]	110
C=C(C)[C@@H]1CC[C@]2(CNCCCN3CCS(=O)(=O)CC3)CC[C@]3(C)[C@H](CC[C@@H]4[C@@]5(C)CCN(C(=O)/C=C/C(=O)O)C(C)(C)[C@@H]5CC[C@]43C)[C@@H]12 [Example 32, (E)-4-((4aR,6aR,6bR,8aS,11R,11aR,11bR,13aR,13bR)-8a-(((3-(1,1-dioxidothiomorpholino)propyl)amino)methyl)-4,4,6a,6b,13b-pentamethyl-11-(prop-1-en-2-yl)hexadecahydro-1H-cyclopenta[5,6]naphtho[2,1-f]isoquinolin-3(2H,4H,13bH)-yl)-4-oxobut-2-enoic acid]	300
C=C(C)[C@@H]1CC[C@]2(CNCCCN3CCS(=O)(=O)CC3)CC[C@]3(C)[C@H](CC[C@@H]4[C@@]5(C)CCN(CC(=O)O)C(C)(C)[C@@H]5CC[C@]43C)[C@@H]12 [Example 33, 2-((4aR,6aR,6bR,8aS,11R,11aR,11bR,13aR,13bR)-8a-(((3-(1,1-dioxidothiomorpholino)propyl)amino)methyl)-4,4,6a,6b,13b-pentamethyl-11-(prop-1-en-2-yl)hexadecahydro-1H-cyclopenta[5,6]naphtho[2,1-f]isoquinolin-3(2H,4H,13bH)-yl)acetic acid]	> 3000
